Data set [1] concerns Murine L1210 leukemia cells. As to the kind of experiment: L1210 cell growth inhibition (IC50). It is filed as cell-based. On the procedure:
Murine L1210 leukemia cells were maintained in logarithmic growth as a suspension culture in RPMI-1640 medium (Gibco, Grand Island, N.Y.) containing 10% fetal bovine serum (Gibco), 2% HEPES-MOPS buffer, 1 mM L-glutamine (Gibco), and 1 mM aminoguanidine at 37° C. in a water-jacketed 5% CO2 incubator.
Cells were grown in 25 cm^2 tissue culture flasks in a total volume of 10 mL. Cultures were treated during logarithmic growth (0.5−1.0×10^5 cells/mL) with the compounds of interest, reseeded, and incubated as described in Bergeron, R. J., Müller, R., Bussenius, J., McManis, J. S., Merriman, R. L., Smith, R. E., Yao, H., Weimar, W. R., “Synthesis and Evaluation of Hydroxylated Polyamine Analogues as Antiproliferatives,” J. Med. Chem 43: 224-235 (2000). Cell counting and calculation of percent of control growth were also carried out as described in Bergeron, et al. The IC50 is defined as the concentration of compound necessary to reduce cell growth to 50% of control growth after defined intervals of exposure.

In data set [2] the test system is L1210 leukemia cells. The settings on record: extracellular 30 μM; cited from earlier work.
Data set [3] concerns polyamine pools in L1210 cells. As to the kind of experiment: Effect on native polyamine pools in L1210 cells (HPLC). It is filed as cell-based, murine. The note with it: L1210 cells, treatment concentration 100 μM.
Procedure: At the end of the treatment period, cell suspensions were sampled, washed three times in ice-cold, incomplete medium, and pelleted for extraction using 0.6 N perchloric acid, then freeze-fractured in liquid nitrogen/hot water three times. Each supernatant was frozen at −20° C. until analysis of polyamine content by HPLC. […] The buffer consisted of potassium phosphate (10 mM) and EDTA (2 mM), pH 2.9.
In data set [4] the test system is Adenosylmethionine decarboxylase (AdoMet DC). As to the kind of experiment: AdoMetDC activity in treated L1210 cells. It is filed as cell-based, murine. On the procedure: Ornithine decarboxylase (ODC) and Adenosylmethionine decarboxylase (AdoMet DC) activities were determined according to the procedures of Seely, J. E., Pegg, A. E., “Ornithine Decarboxylase (Mouse Kidney),” Methods Enzymol. 94: 158-161 (1983) and Pegg, A. E., Pösö, H., “S-Adenosylmethionine Decarboxylase (Rat Liver),” Methods Enzymol. 94: 234-239 (1983), respectively, on the basis of quantitation of ^14CO2 released from [^14C]carboxyl-labeled L-ornithine or S-adenosyl-L-methionine. Included in each assay were untreated L210 cells as negative controls as well as cells treated with DEHSPM, a drug having a known reproducible effect on each enzyme, as positive controls.

Data set [5] concerns Spermidine/spermine N^1-acetyl transferase (SSAT). Description: SSAT activity in treated L1210 cells. It counts as cell-based, murine. The text has this:
Spermidine/spermine N^1-acetyl transferase (SSAT) activity was based on quantitation of [^14C]-N^1-acetylspermidine formed by acetylation of SPD with [^14C]-acetyl coenzyme A according to the method of Libby, P. R., Bergeron, R. J., Porter, C. W., “Structure-Function Correlations of Polyamine Analog-Induced Increases in Spermidine/Spermine Acetyltransferase Activity,” Biochem. Pharmacol. 38: 1435-1442 (1989). Cells treated with DENSPM were positive controls.

The subject of data set [6] is Murine L1210 leukemia cells. The note with it: cited from earlier work.
For data set [7], the target named is polyamine transporter. The settings on record: L1210 cell suspensions; read-out: Ki, competition for the polyamine transport apparatus (historical numbers); cited from earlier work.
Data set [8] has as its system L1210 leukemia cells. As to the kind of experiment: Intracellular concentration / accumulation of analogue in L1210 cells (HPLC). The settings on record: treatment concentration 100 μM.
Procedure: At the end of the treatment period, cell suspensions were sampled, washed three times in ice-cold, incomplete medium, and pelleted for extraction using 0.6 N perchloric acid, then freeze-fractured in liquid nitrogen/hot water three times.
During logarithmic growth, cells were treated with the compounds. At the end of the treatment period, cell suspensions were sampled, washed three times in ice-cold, incomplete medium, and pelleted for extraction using 0.6 N perchloric acid, then freeze-fractured in liquid nitrogen/hot water three times. Each supernatant was frozen at −20° C. until analysis of analogue content by HPLC,
Analytical separation was performed on a Waters Symmetry C18 column (250 mm×4.6 mm, 5 μm) with a guard column using a Rainin Instrument Company HPLC system. The buffer employed was sodium octanesulfonate (2.5 mM) in potassium phosphate (25 mM), pH 3.0. Mobile phase A consisted of 5% CH3CN, 95% buffer; mobile phase B consisted of 60% CH3CN, 40% buffer. The solvent gradient program employed a linear gradient that increased from 20% mobile phase B to 40% mobile phase B over 40 min and a 5-min ramp to 100% B over 5 min. Post-column derivatization used a boric acid buffer system (H3BO3, 3.1% w/v; KOH, 2.6% w/v; 2-mercaptoethanol, 0.6% v/v) that contained o-phthaldialdehyde (10 mL of a 4% w/v solution in CH3OH per L of buffer). The flow rate was 0.4 mL/min, isocratic; UV detection (λex, 340 nm; λem, 445 nm) was utilized.
Analytical separation was performed on a reversed-phase Supelco Discovery RP Amide C16 column (150×4.6 mm, 5 μm) on the system described above, and UV detection was at 300 nm. The mobile phases were pumped at a flow rate of 1.5 mL/min. The buffer and mobile phases A and B were the same as described above. The solvent gradient program employed an initial 10-min isocratic portion with 5% mobile phase B (95% A), followed by a linear gradient increase to 80% mobile phase B at 35 min, a 5-min ramp to 100% B held for 10 min, and ramping back to 5% mobile phase B for 8 min (58-65 min total).
In both cases, the concentrations were calculated from the peak area fitted to calibration curves by nonweighted least squares linear regression with Rainin Dynamax HPLC Method Manager software (Rainin Instrument Co.).

The values that follow come from US20080096974A2, “Polyamine-Metal Chelator Conjugates” (University of Florida Research Foundation, Inc., priority 2003, published 2008).

Like-named read-outs stand apart in the source and are kept apart here. Some results are limits rather than exact numbers.

On to `CCNCCCNCCCCNCCCNCC` [DESPM], for which the IC50 in data set [1] (48 h exposure, read-out: IC50, 48 h) was 30 µM; in data set [1] (96 h exposure, read-out: IC50, 96 h) it was 0.2 µM. Also, in data set [2], the “intracellular level (previous studies)” value was 400 µM.

For the molecule `CCCNCCCCNCCCN` [MPSPD(N^8), N^8-propylspermidine], in data set [3], the “putrescine, percent of control” value is “lowered” and the “spermidine, percent of control” value is reported as “lowered”. Moreover, the activity at 100 µM in data set [3] (Mus musculus, read-out: spermine, percent of control) was 103%. For the same molecule, in data set [4], the “AdoMetDC activity, % of control” value is reported as 64 % of control. The “SSAT activity, % of control” value in data set [5] was 500 % of control. Further, the IC50 in data set [6] (48 h exposure, read-out: IC50, 48 h (historical numbers)) was > 100 µM. Besides, the IC50 in data set [6] (96 h exposure, read-out: IC50, 96 h (historical numbers)) was 55 µM. For the same molecule, in data set [7], the Ki was 8.5 µM. For the same molecule, the “intracellular concentration (analogue accumulation)” value in data set [8] came to 3.52 mM.
